Key:
[1] = test system: platelets (platelet-rich plasma); assay: Platelet phenotyping: platelet aggregation in platelet-rich plasma by light transmission aggregometry, U46,619 with or without PGE2; assay type: cell-based, human; settings: PGE2 100 nmol/L preincubated with PRP, sub-maximal U46,619, aggregation recorded 6 min, n=86 (FIG. 1)
Procedure: Measurements of platelet aggregation in PRP were made using light transmission aggregometry using a Chrono-Log lumi-aggregometer (Model 460VS). The aggregometer was calibrated for each sample to read 0-10% light transmission for PRP and 90-100% light transmission for PPP. Aliquots of PRP were placed in siliconized glass cuvettes containing Teflon-coated stir bars and incubated for 2 minutes at 37° C. PRP was preincubated with or without 100 nM PGE2 for 10-20 s before adding U46,619 at various concentrations. Samples were stirred at 800 rpm throughout a 6 minute aggregation run. Experiments were completed within 2 hours of phlebotomy. Percentage aggregation was recorded with Aggrolink software (Chrono-Log) and exported to GraphPad Prism for analysis. For each subject, multiple doses of U46,619 agonist were used to construct a dose response curve according to methods described previously; each U46,619 dose was tested with and without PGE2.
In order to describe the phenotypic observation in a quantitative rather than just qualitative format a continuous variable was constructed as follows: for each dose of U46,619, the aggregation value obtained at the end of the 6 min run in the presence of PGE2 was subtracted from the value obtained without PGE2. The largest difference was reported as the maximum PGE2 effect (maximum difference). […]

[2] = test system: platelets from an individual with the low threshold phenotype; settings: platelets of low threshold (potentiating) phenotype treated with the EP3 antagonist; ref [6], FIG. 2; cited from earlier work

Row | Compound | individuals in whom PGE2 decreases the threshold of platelet activation by the thromboxane agonist U46,619 (inhibitory phenotype) [1] | individuals in whom PGE2 increases the threshold of platelet activation by the thromboxane agonist U46,619 (potentiating phenotype) [1] | shift of PGE2 response phenotype [2]
1 | CCCCC[C@H](O)/C=C/[C@H]1[C@H](O)CC(=O)[C@@H]1C/C=C\CCCC(=O)O [PGE2, Prostaglandin E2] | 56 % of individuals | 44 % of individuals | 
2 | Cc1cn(Cc2ccc(Cl)cc2Cl)c2c(/C=C/C(=O)NS(=O)(=O)c3cc(Cl)c(Cl)s3)cc(F)cc12 [DG-041] |  |  | the phenotype shifts to high threshold

Reference: patent publication US10203322B2, “Method for identifying subjects with increased risk of ST-segment elevation myocardial infarction (STEMI) and identifying subjects likely to respond to particular treatments” (Vanderbilt University, priority 2017, dated 2019)
